Experimental data reported in PubChem BioAssay AID2060625 (Molecular Pharmacology Branch, DTP, NCI, 2025).
Several values for one entry are separate records, joined by “and”; a condition that tells them apart may be missing. Equal entries are not always repeated.

System: 186277-243-T-J2-PDC spheroids with HUVEC/MSC, viability
Assay: Anticancer human tumor 186277-243-T-J2-PDC patient-derived colon adenocarcinoma cell line growth inhibition [CLK]
Settings: for viability, T/C: stronger effect = lower value
Method in brief: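 Multi-cell-type spheroids combined patient-derived tumor cells with HUVEC endothelial cells and human mesenchymal stem cells. Paired agents were dosed in half-log steps down from about clinical Cmax, or from 10 microM where Cmax was unknown.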
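Also: compound exposure lasted seven days before readout.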
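For viability, T/C in this document: 100% = DMSO vehicle control wells.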

SMILES: C=C(F)C(=O)N1CCN(c2nc(OCC3CCCN3C)nc3c2CCN(c2cccc4cccc(Cl)c24)C3)CC1CC#N (centres undefined) + CNC(=O)c1ccc(Nc2nc(OC3CCCC3)c3c(-c4ccc5nc(C)oc5c4)c[nH]c3n2)c(OC)c1
- IC50 (curve of first compound, second compound 0.0316 µM): 5730 nM
- IC50 (curve of first compound, second compound 0.1 µM): 4220 nM
- IC50 (curve of first compound, second compound 0.316 µM): < 31.6 nM
- IC50 (curve of first compound, second compound 1 µM): < 31.6 nM
- IC50 (curve of first compound, second compound 3.16 µM): < 31.6 nM
- IC50 (curve of first compound, second compound 10 µM): < 31.6 nM
- viability, T/C (second compound 0.0316 µM, first compound 0.0316 µM): 98%
- viability, T/C (second compound 0.0316 µM, first compound 0.1 µM): 96.1%
- viability, T/C (second compound 0.0316 µM, first compound 0.316 µM): 99.2%
- viability, T/C (second compound 0.0316 µM, first compound 1 µM): 93.8%
- viability, T/C (second compound 0.0316 µM, first compound 3.16 µM): 114%
- viability, T/C (second compound 0.0316 µM, first compound 10 µM): 3.01%
- viability, T/C (second compound 0.1 µM, first compound 0.0316 µM): 68.4%
- viability, T/C (second compound 0.1 µM, first compound 0.1 µM): 70.6%
- viability, T/C (second compound 0.1 µM, first compound 0.316 µM): 69.8%
- viability, T/C (second compound 0.1 µM, first compound 1 µM): 61.2%
- viability, T/C (second compound 0.1 µM, first compound 3.16 µM): 65.9%
- viability, T/C (second compound 0.1 µM, first compound 10 µM): 2.67%
- viability, T/C (second compound 0.316 µM, first compound 0.0316 µM): 45.1%
- viability, T/C (second compound 0.316 µM, first compound 0.1 µM): 48.2%
- viability, T/C (second compound 0.316 µM, first compound 0.316 µM): 42.7%
- viability, T/C (second compound 0.316 µM, first compound 1 µM): 46%
- viability, T/C (second compound 0.316 µM, first compound 3.16 µM): 48.1%
- viability, T/C (second compound 0.316 µM, first compound 10 µM): 0.4%
- viability, T/C (second compound 1 µM, first compound 0.0316 µM): 36%
- viability, T/C (second compound 1 µM, first compound 0.1 µM): 39.8%
- viability, T/C (second compound 1 µM, first compound 0.316 µM): 34.5%
- viability, T/C (second compound 1 µM, first compound 1 µM): 35.9%
- viability, T/C (second compound 1 µM, first compound 3.16 µM): 36.7%
- viability, T/C (second compound 1 µM, first compound 10 µM): 1.8%
- viability, T/C (second compound 3.16 µM, first compound 0.0316 µM): 37.3%
- viability, T/C (second compound 3.16 µM, first compound 0.1 µM): 35.2%
- viability, T/C (second compound 3.16 µM, first compound 0.316 µM): 32.3%
- viability, T/C (second compound 3.16 µM, first compound 1 µM): 36.7%
- viability, T/C (second compound 3.16 µM, first compound 3.16 µM): 34.1%
- viability, T/C (second compound 3.16 µM, first compound 10 µM): 0.54%
- viability, T/C (second compound 10 µM, first compound 0.0316 µM): 37.3%
- viability, T/C (second compound 10 µM, first compound 0.1 µM): 35.4%
- viability, T/C (second compound 10 µM, first compound 0.316 µM): 37.9%
- viability, T/C (second compound 10 µM, first compound 1 µM): 38%
- viability, T/C (second compound 10 µM, first compound 3.16 µM): 27.1%
- viability, T/C (second compound 10 µM, first compound 10 µM): 0.4%

SMILES: CC1COCCN1c1cc(C2(S(C)(=N)=O)CC2)nc(-c2ccnc3[nH]ccc23)n1 (centres undefined)
- viability, T/C (compound 0.0316 µM): 103% and 82.6%
- viability, T/C (compound 0.1 µM): 85.5% and 88%
- viability, T/C (compound 0.316 µM): 96.9% and 95%
- viability, T/C (compound 1 µM): 122% and 103%
- viability, T/C (compound 3.16 µM): 41.2% and 34%
- viability, T/C (compound 10 µM): 15% and 13.5%
- IC50 (curve of compound): 2680 nM and 2310 nM
